Tests used:
[1] = system: Mice passively sensitized with anti-DNP IgE mAb, DNFB challenge; assay: Prophylactic effects: IgE-mediated late phase cutaneous reactions (ear and foot swelling); type: in vivo; details: 1 mg/kg orally twice (before IgE injection and before DNFB challenge), thickness measured after 24 h, FIG. 1B
Description: Mice were given 4-[1-(5-methyl-pyridin-3-ylmethyl)piperidin-4-ylidene]-4,9-dihydro-1-thia-benzo[f]azulen-10-one (1 mg/kg) or ketotifen (1 mg/kg) orally twice as per the schedule dosing regimen provided in FIG. 1A as indicated by the numbered dose in a circle. The first dose (indicated by a circled number 1) was given on day 1 before IgE injection and a 2nd dose (indicated by a circled number 2) was given on day 2 before dinitrofluorobenzene (DNFB, as an allergen) challenge. Mice were passively sensitized by i.v. injection of 2 μg anti-DNP IgE mAb (Sigma). After 24 h, a cutaneous reaction was elicited by the application of 20 μl of DNFB (0.3% wt/vol, Sigma) in acetone-olive oil (4:1) to both sides of the left hind paw or left ear, and 20 μl of acetone-olive oil to the right hind paw or right ear as a control. The thickness of foot pad or ear was measured using a digital micrometer after 24 h. The thickness of the right ear or right hind paw (treated with acetone-olive oil only) was used as baseline values. The DNFB-induced increment of tissue thickness was expressed as the percentage of the baseline values.

[2] = system: Mice sensitized with anti-DNP IgE mAb, DNP-BSA challenge; assay: Prophylactic effects: IgE-mediated passive cutaneous anaphylaxis (Evan's blue dye leakage); type: in vivo
Description: Mice were given 4-[1-(5-methyl-pyridin-3-ylmethyl)piperidin-4-ylidene]-4,9-dihydro-1-thia-benzo[f]azulen-10-one (1 mg/kg) or ketotifen (1 mg/kg) orally as per dosing schedule shown in FIG. 2A. Subsequently, mice were sensitized by intradermal injection of 20 ng antidinitrophenyl (DNP) IgE mAb (Sigma) into left ears, while right ear received saline as a control. After 24 h, mice were challenged by i.v. injection of 100 μg of DNP-Bovine Serum Albumin (BSA) (as an allergen) in 200 μl Evan's blue dye (1% wt/vol, Sigma). Thirty min later, ear punch (8 mm) was collected in 300 μl of formamide and incubated at 80° C. for 2 h in water bath to extract Evan's blue dye. The absorbance was determined at 620 nm. […] Granule-associated mediators such as histamine stimulate endothelium and blood vessel smooth muscle cells leading to increased vascular permeability.

[3] = system: Mice passively sensitized with anti-DNP IgE mAb, DNFB application; assay: Therapeutic effects: IgE-mediated late phase cutaneous reactions (ear and foot swelling); type: in vivo; details: FIG. 3B
Description: After 24 h, a cutaneous reaction was elicited by the application of 20 μL of DNFB (0.3% wt/vol, Sigma) in acetone-olive oil (4:1) to both sides of the left hind paw or left ear, and 20 μl of acetone-olive oil to the right hind paw or right ear as a control as shown in FIG. 3A. Three hours after DNFB application, mice were given 4-[1-(5-methyl-pyridin-3-ylmethyl)piperidin-4-ylidene]-4,9-dihydro-1-thia-benzo[f]azulen-10-one (1 mg/kg, p.o.), ketotifen (1 mg/kg, p.o.) or saline as control as indicated in FIG. 3A by the circled number “1”. The thickness of foot pad or ear was measured using a digital micrometer after 24 h of DNFB application. The weight of hind paw or ear punch (5 mm) was also determined. The thickness and weight of the right ear or right hind paw (treated with acetone-olive oil only) were used as baseline values. The DNFB-induced increment of tissue thickness was expressed as the percentage of the baseline values.

[4] = system: Mouse bone marrow derived mast cells (BMMCs); assay: Allergen-induced cytokine IL-6 production by mast cells in vitro; type: cell-based; details: FIG. 4
Description: Mouse bone marrow derived mast cells (BMMCs) were resuspended in fresh complete medium supplemented with TIB141-conditioned medium enriched in IgE directed against trinitrophenyl (TNP) at a ratio of 3:1. BMMCs were typically sensitized at 0.5 million/ml. Following sensitization, BMMCs were washed extensively with RPMI 1640 supplemented with 10% FBS alone. BMMCs were then treated with 4-[1-(5-methyl-pyridin-3-ylmethyl)piperidin-4-ylidene]-4,9-dihydro-1-thia-benzo[f]azulen-10-one or ketotifen at the concentration of […], 1, 10 or 100 μM for 1 hour and subsequently stimulated with antigen TNP-BSA (10 ng/ml) for 6 h. Cytokine levels in the cell free supernatant were determined by ELISA.

[5] = system: Mouse bone marrow derived eosinophils; assay: Inhibition of eosinophil proliferation in vitro (3H-thymidine incorporation); type: cell-based; details: for thymidine incorporation (eosinophil proliferation): eosinophils cultured with IL-5 (50 ng/ml), treated 1 hour, 3H-thymidine pulse 18 hours, CPM
Description: Mouse bone marrow derived eosinophils (1×10^5 cells/well) were seeded in 96 well plates in triplicate and were cultured with IL-5 (50 ng/ml). Eosinophils were treated with 4-[1-(5-methyl-pyridin-3-ylmethyl)piperidin-4-ylidene]-4,9-dihydro-1-thia-benzo[f]azulen-10-one (Compound A) or ketotifen for 1 hour. Cells were then pulsed with 0.5 μCi of ^3H-thymidine for 18 hours. Cells were harvested to glass fiber paper using a suction manifold and washed extensively to eliminate unincorporated thymidine. Fiber paper was dried and added to vials with 2.5 ml of scintillation fluid (Ecolite). Thymidine incorporation was measured on a Wallac beta counter.
The incorporation of ^3H-thymidine (eosinophil proliferation) was quantified by liquid scintillation counting (CPM).

[6] = 1 mg/kg p.o. each, three hours after DNFB application

Compound | allergen DNFB-induced ear and foot swelling [1] | allergen (DNP)-induced Evan's blue dye leakage ([2]; 1 mg/kg orally before sensitization, compared to the vehicle control, FIG. 2B) | time after oral administration at which inhibitory effects on Evan's blue dye leakage and tissue swelling were observed ([2]; 1 mg/kg orally, suggesting long-lasting effects) [h] | block of swelling and weight increase of ear and feet, compared with ketotifen [3, 6] | foot weight, activity compared with ketotifen [3, 6] | DNP-induced swelling and increase the weight of the ear and the feet ([3]; 1 mg/kg p.o. three hours after DNFB application, measured 24 h after DNFB application) | cytokine IL-6 production by mast cells ([4]; BMMCs treated at 01, 1, 10 or 100 μM for 1 hour, then TNP-BSA (10 ng/ml) for 6 h, ELISA) | reduction of IL-6 production by mast cells, compared with ketotifen ([4]; equivalent concentrations (01, 1, 10 or 100 μM)) | thymidine incorporation (eosinophil proliferation) [5] | inhibition on eosinophil proliferation, compared with ketotifen ([5]; p<0.01, n=3 experiments, FIG. 5)
Cc1cncc(CN2CCC(=C3c4ccccc4CC(=O)c4sccc43)CC2)c1 [Compound A, 4-[1-(5-methyl-pyridin-3-ylmethyl)-piperidin-4-ylidene]-4,9-dihydro-1-thia-benzo[f]azulen-10-one] | strongly reduced | strongly reduced | 24 | comparable to ketotifen | surpassing the activity of ketotifen | significantly block | significantly reduce | even more effective than ketotifen at some of the equivalent concentrations used | dose-dependently reduced | significantly stronger inhibition
CN1CCC(=C2c3ccccc3CC(=O)c3sccc32)CC1 [ketotifen, reference compound] | – | – | – | – | – | – | – | – | dose-dependently reduced | –

— patent US10022362B2, “Anti-allergy benzocycloheptathiophene derivatives” (FUJIAN MINDONG REJUVENATION PHARMACEUTICAL CO., LTD., priority 2011, dated 2018)
